Experimental data from publication PMC10349806 (Nature Communications, 2023).
“And” between values parts separate entries of the source, which are not always exact repeats. Identical values can stand only once.

How the values were obtained:
PfCRT variant E207S = experiment: CQ uptake assay, oocytes expressing E207S; format: cell-based, Plasmodium falciparum
Procedure: (§1) Site-directed mutagenesis of PfCRT^Dd2 was performed as described using the megaprimer method with overlap extension[21],[54]. The primer pairs used are listed in Supplementary Table 6. Please note that a codon-optimized and oocyte-adapted version of PfCRT^Dd2 was used[22] (Supplementary Fig. 16). The resulting DNA fragment was cloned into the SP64T expression vector and verified by sequencing.
(§2) Oocytes were obtained as described previously. Briefly, adult (>2 years old) female X. laevis frogs (NASCO) were anesthetized in a cooled solution of ethyl 3-amino benzoate methanesulfonate (0.1%, w/v), followed by a surgical removal of parts of the ovary. The ovary lobes were carefully dissected and small pieces of oocytes were incubated in Ca^2+-free ND96 buffer (96 mM NaCl, 2 mM KCl, 1 mM MgCl2 buffered with 5 mM HEPES/NaOH, pH 7.5) supplemented with collagenase D (0.1%, w/v; Roche), BSA (0.5%, w/v), and 9 mm Na2HPO4 at 18 °C for 14-16 h while gentle shaking. After incubation, the oocytes were carefully washed several times with ND96 buffer (96 mM NaCl, 2 mM KCl, 1.8 mM CaCl2, 1 mM MgCl2 buffered with 5 mM HEPES/NaOH, pH 7.5) supplemented with 100 mg l^−1 gentamycin). Defolliculated and healthy-looking stage V-VI oocytes were manually selected for RNA microinjection. The RNA was generated as following: The codon-optimized sequences of PfCRT variants were cloned into the pSP64T expression vector. After vector linearization using the restriction endonucleases BamHI or SalI (New England Biolabs), transcription was performed using the in vitro SP6 mMessage mMachine Kit (Ambion)[34]. The obtained RNA was kept at −80 °C and diluted with nuclease-free water to a concentration of 0.6 μg μl^−1. Precision-bore glass capillary tubes (3.5-inch glass capillaries; Drummond Scientific Co.) were pulled on a vertical puller (P-87 Flaming/Brown micropipette puller, Sutter Instrument Co.), graduated, and placed on a microinjector (Nanoject II Auto-Nanoliter Injector, Drummond Scientific Co.). 50 nl of nuclease-free water alone (control oocytes) or 50 nl of 0.6 μg μl^−1 RNA were injected under stereomicroscopic control. Injected oocytes were incubated for 46–72 h at 18 °C with twice-daily buffer changes before usage in experiments.
Drug uptake assays were performed as described previously[21],[22],[24],[34]. […] The direction of radio-labeled drug transport is here from the mostly acidic extracellular solution (pH 4.5 or 6.0, as indicated) into the oocyte cytosol (pH ∼ 7.2), which corresponds to the efflux of drug from the acidic digestive vacuole (pH 5.2) into the parasite cytoplasm (pH 7.2). The topology of PfCRT in the oolemma is such that both the N- and C-terminus face the extracellular milieu[3],[22]. In the parasite, the N- and C-terminus face the lumen of the digestive vacuole. CQ uptake kinetics were performed by incubating oocytes in ND96 buffer adjusted to a pH of 4.5, 5.0, 5.5, or 6.0 and supplemented with 50 nM [^3H]CQ and one of 7 different CQ concentrations (10 µM, 50 µM, 100 µM, 200 µM, 300 µM, 400 µM, 500 µM CQ). The reaction was stopped at the 60 min time point, which is in the linear uptake range[22],[34] (Supplementary Fig. 17). For determination of the amount of drug uptake for each oocyte, the reaction medium was removed and the oocytes were washed three times with 2 ml of ice-cold ND96 buffer. Each oocyte was individually transferred to a scintillation vial containing 5% sodium dodecyl sulfate (200 μl) for lysis. The radioactivity of each sample was measured using a liquid scintillation analyzer Tri-Carb 4910 TR (PerkinElmer). Oocytes that were injected with water instead of RNA were analyzed in parallel, representing the uptake of a drug by diffusion and/or endogenous permeation pathways. The resulting value represents the “background“ level of drug accumulation in oocytes (in-depth discussion in[22]). […]

PfCRT variant H97A = molecular target: T1, PfCRT variant H97A (Plasmodium falciparum, UniProt Q9N623, A220S/H97A/I356T/K76T/M74I/N326S/N75E/Q271E/R371I); experiment: CQ uptake assay, oocytes expressing H97A; format: cell-based
T1 sequence (Q9N623 1-424 M74I/N75E/K76T/H97A/A220S/Q271E/N326S/I356T/R371I): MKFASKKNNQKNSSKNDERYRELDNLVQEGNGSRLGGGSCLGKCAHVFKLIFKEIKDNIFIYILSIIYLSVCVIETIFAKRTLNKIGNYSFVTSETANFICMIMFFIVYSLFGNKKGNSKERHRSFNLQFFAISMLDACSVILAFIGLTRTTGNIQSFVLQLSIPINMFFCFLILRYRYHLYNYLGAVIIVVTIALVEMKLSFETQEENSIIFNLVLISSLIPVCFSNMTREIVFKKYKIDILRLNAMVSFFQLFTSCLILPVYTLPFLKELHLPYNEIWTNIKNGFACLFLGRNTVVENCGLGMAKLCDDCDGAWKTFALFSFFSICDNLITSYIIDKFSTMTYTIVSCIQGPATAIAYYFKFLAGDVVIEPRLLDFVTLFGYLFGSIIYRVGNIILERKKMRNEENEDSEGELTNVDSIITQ
Procedure: as §1, §2
Drug uptake assays were performed as described previously[21],[22],[24],[34]. […] Oocytes that were injected with water instead of RNA were analyzed in parallel, representing the uptake of a drug by diffusion and/or endogenous permeation pathways. […] The specific PfCRT-mediated uptake was determined by subtracting the corresponding background value measured in water-injected oocytes from that of PfCRT-expressing oocytes. […]

[1] = E207S, 50 µM CQ, 1 h, mean ± SEM

## CCN(CC)CCCC(C)Nc1ccnc2cc(Cl)ccc12 (stereo not shown) [CQ, chloroquine]
PfCRT variant E207S; [1]
  Activity at pH 4.5: 2.94 ± 0.21 pmol h-1 oocyte-1
  Activity at pH 6.0: 3.07 ± 0.23 pmol h-1 oocyte-1
PfCRT variant E207S; E207S, CQ transport at pH 4.5 / pH 6.0
  R-value: 0.96 ± 0.01
PfCRT variant E207S; pH 4.5, individual replicates, Fig 6b
  E207S transport activity pH 4.5: 3.45 pmol oocyte-1 h-1 and 2.79 pmol oocyte-1 h-1 and 2.59 pmol oocyte-1 h-1
PfCRT variant E207S; pH 6.0, individual replicates, Fig 6b
  E207S transport activity pH 6.0: 3.59 pmol oocyte-1 h-1 and 2.98 pmol oocyte-1 h-1 and 2.63 pmol oocyte-1 h-1
PfCRT variant E207S; ratio of activity pH 4.5 / pH 6.0
  E207S R-value: 0.96 and 0.94 and 0.98
PfCRT variant H97A; H97A, 50 µM CQ, 1 h, mean ± SEM
  Activity at pH 6.0: 6.57 ± 0.71 pmol h-1 oocyte-1
PfCRT variant H97A; H97A, CQ transport at pH 4.5 / pH 6.0
  R-value: 0.40 and 0.40 ± 0.04
PfCRT variant H97A; pH 4.5, single replicates, Fig 1d left
  H97A transport activity pH 4.5: 3.71 pmol oocyte-1 h-1 and 4.69 pmol oocyte-1 h-1 and 2.51 pmol oocyte-1 h-1 and 3.21 pmol oocyte-1 h-1 and 2.32 pmol oocyte-1 h-1 and 1.49 pmol oocyte-1 h-1 and 2.15 pmol oocyte-1 h-1 and 1.58 pmol oocyte-1 h-1
PfCRT variant H97A; pH 6.0, single replicates, Fig 1d left
  H97A transport activity pH 6.0: 9.31 pmol oocyte-1 h-1 and 6.25 pmol oocyte-1 h-1 and 4.00 pmol oocyte-1 h-1 and 9.52 pmol oocyte-1 h-1 and 5.42 pmol oocyte-1 h-1 and 3.89 pmol oocyte-1 h-1 and 6.61 pmol oocyte-1 h-1 and 7.56 pmol oocyte-1 h-1
